Test: Human HepG2 cell viability assay in 384 well format
Type: toxicity, cell-based
Design: dose 125 nL, time 70.5 hour; concentration not given beside the values
Settings: HepG2 cells, read-out: Inhibition

Compound	cytotoxicity at 70.5 h [%]
O=C1N(Cc2cccc(F)c2)CCC12CCCNC2 (stereo not drawn)	-13.6
O=C(C1CCOC1)N1CCC2(CC1)COC2 (stereo not drawn)	-7.79
CC(C)NC(=O)[C@H]1C[C@@H]2[C@@H](C1)OCCN2Cc1ccncc1	-7.54
c1cc(C[C@H]2[C@H](N3CCOCC3)CCN2Cc2ccoc2)ccn1	-11.4
c1nc2c(c(C3CCOC3)n1)CCN(Cc1ccoc1)CC2 (stereo not drawn)	7.95
Cc1cnc(C(=O)N2CCC3(CC2)CC(c2ccccc2)C(=O)N3)cn1 (stereo not drawn)	8.04
CNC(=O)c1nc2c(s1)CCN(C(=O)c1ccccc1)CC2	-9.7
CN(C)CCOCC1CN(C(=O)c2cscn2)Cc2ccnn2C1 (stereo not drawn)	-8.28
CS(=O)(=O)N[C@@H]1CN(Cc2ccccc2)C[C@@H]2CCCO[C@@H]21	-4.64
CC(C)CNC(=O)c1nc2c(s1)CCN(C(=O)c1ccc(Cl)cc1)CC2	-3.22
CCS(=O)(=O)N1CCC2(CC(=O)N(c3cncnc3)C2)C1 (stereo not drawn)	-3.21
Cn1cccc1C(=O)NCc1cnc2n1CCN(C(N)=O)CC2	-4.35
Cc1noc(C)c1CN1CCOC2(CCCN(c3ccccn3)C2)C1 (stereo not drawn)	-8.65
O=C([C@H]1C[C@H]2OCC[C@H]2N(C(=O)c2ccnnc2)C1)N1CCCCO1	1.65
O=C([C@H]1C[C@H]2OCC[C@H]2N(C(=O)c2cnccn2)C1)N1CCCCO1	-8.15
Cn1cccc1C(=O)NCc1cnc2n1CCN(C(=O)c1ccoc1)C2	-7.47
Cc1occc1C(=O)N1C[C@@H](C(=O)N2CCCCO2)C[C@H]2OCC[C@H]21	-7.27
Cn1nnc2c1CCN(C(=O)CC1CC1)C2COCCN1CCCC1 (stereo not drawn)	8.05
O=C(c1ccoc1)N1CCO[C@]2(CCC[C@@H]2COCc2ccncc2)C1	1.38
c1ccc(CN2CCN3C[C@H](Oc4cccnc4)C[C@H]3C2)nc1	-3.66
COC[C@H]1CNC(=O)[C@@H]2CCN(Cc3cccc(C)n3)CC[C@H]12	0.496
O=C(c1ccno1)N1CCO[C@]2(CCC[C@@H]2COCc2ccncc2)C1	-2.51
Cc1ccsc1C(=O)NCC1COCc2c(C)nnn2C1 (stereo not drawn)	-1.54
Cc1nnn2c1COCC(CNC(=O)c1cnoc1C)C2 (stereo not drawn)	0.126
CCN1C(=O)C2(CCOCC2)c2cc(NC(=O)c3csnn3)ccc21	8.75
Cc1cnc(C(=O)N2CCc3ncnc(C)c3CC2)cn1	-3.63

Compound	cytotoxicity at 70.5 h [%]
O=C(Cc1ccsc1)N1CCn2cc(CN3CCCC3)nc2C1	-5.43
O=C(CC1CC1)NCc1cc(=O)n2c(n1)CN(Cc1ccoc1)CCC2	-5.33
Cc1nocc1C(=O)N1CCc2c(CN(C)C(C)C)n[nH]c2C1	-8.09
Cc1ccc(CC(=O)N2Cc3nccn3CC(Cn3cccn3)C2)cc1 (stereo not drawn)	-0.504
Cc1noc([C@@H]2C[C@H]3OCC[C@H]3N(S(C)(=O)=O)C2)n1	-8.57
COCCNC(=O)C[C@@H]1COC[C@H]2CN(C(=O)c3cnccn3)C[C@@H]12	-6.71
COCCN1CCC2(CCCN(C(=O)c3cnoc3C)C2)C1=O (stereo not drawn)	-0.05
CN1C(=O)C[C@@H]2[C@@H]1CCN2C(=O)c1ccc[nH]1	-2.89
CC(=O)NCC(=O)N1CCc2c(CNc3ncccn3)cncc2C1	-2.19
O=C1C[C@H]2[C@@H](CCN2C(=O)Cc2ccccc2)N1Cc1cccnc1	-8.76
CCOC1COC2(CCN(Cc3ccc(F)cc3)CC2)C1 (stereo not drawn)	-20.1
CC(=O)N1C(CN2CCCC2)C[C@@H]2CN(C(=O)c3ccoc3)CC[C@@H]21 (stereo partly drawn)	-15.6
CCOC1COC2(CCN(Cc3ccc(C)c(C)c3)CC2)C1 (stereo not drawn)	-11
CCOC1COC2(CCN(Cc3ccc(C)cc3)CC2)C1 (stereo not drawn)	-11.9
COCCC(=O)N1C[C@H]2CN(Cc3cccnc3)C(=O)[C@H]2C1	4.13
Cn1cc(CN2CCC[C@]3(C(=O)O)CN(c4ncccn4)C[C@@H]3C2)cn1	-12
CCc1ncnc2c1CCN(Cc1cccs1)CC2	-7.19
c1csc(CN2CCc3ncnc(C4CCOC4)c3CC2)n1 (stereo not drawn)	-4.88
CO[C@H]1CCN(c2nnc(C)s2)C[C@@H]1Cc1ccccc1	-4.37
O=C(N1CCCC1)N1CCC[C@]2(C[C@@H](OCc3ccncc3)CO2)C1	-10.6
COc1ccc(C[C@H]2CN(c3nnc(C)s3)CC[C@H]2OC)cc1	-10.2
O=C([C@H]1CN(Cc2ccc(F)cc2)C[C@H]2OCC[C@@H]12)N1CCCO1	-7.77
CNC(=O)[C@H]1C[C@H]2OCC[C@H]2N(CC2CCOCC2)C1	-8.61
CO[C@H]1CCN(c2nnc(C)s2)C[C@@H]1Cc1cccc(C)c1	7.81
O=C(N[C@@H]1CN(c2ncccn2)C[C@@H]2CCCO[C@@H]21)c1ccnnc1	-6.03
O=C(NCc1cn2c(n1)CN(Cc1nccs1)CC2)C1CCC1	-6.31

Compound	cytotoxicity at 70.5 h [%]
N#Cc1cccc(CN2C[C@H](OCC3CCOCC3)[C@H]3COC[C@H]32)c1	-5.67
O=C([C@H]1C[C@H]2OCC[C@H]2N(C(=O)c2ccccn2)C1)N1CCCCO1	-6.44
COCC(=O)N1CCc2c(nnn2C)C1COCCN1CCCC1 (stereo not drawn)	-2.45
CC(C)N(C)Cc1ncn2c1CN(S(=O)(=O)c1cccs1)CCC2	13
CS(=O)(=O)NC[C@@H]1OC[C@H]2CN(C(=O)c3ccccn3)CC[C@H]21	-3.81
O=C(CC1CC1)N[C@@H]1CN(Cc2ccco2)C[C@@H]2CCCO[C@@H]21	-2.26
CNC(=O)[C@@H]1CCO[C@@H]2CCN(C3CCOCC3)C[C@@H]21	-0.345
Cc1cc(CN2CC[C@H]3OCC[C@@]3(C(=O)NCc3ccco3)C2)no1	0.284
O=C(c1ccc[nH]1)N1CCO[C@]2(CCC[C@@H]2COc2cccnc2)C1	-2.32
CCS(=O)(=O)N1CCC2(CC1)CC(COC)N(c1ncccn1)C2 (stereo not drawn)	2.68
O=C(c1ccoc1)N1CCO[C@]2(CCC[C@H]2COCc2cccnc2)C1	-0.748
O=S(=O)(c1cccs1)N1CCCn2cnc(CO)c2C1	-1.4
Cc1ccc(CN2C[C@@H]3CCCO[C@@H]3[C@H](NC(=O)CC3CC3)C2)s1	-1.25
COCC(=O)N1CCC2(CC1)CC(COC)N(c1ncccn1)C2 (stereo not drawn)	-5.32
Cc1nc(CN2C[C@@H]3CCCO[C@@H]3[C@H](NC(=O)CC3CC3)C2)cs1	-0.515
O=C(NC1CCC1)[C@@H]1CCO[C@@H]2CCN(C3CCCC3)C[C@@H]21	1.69
O=C(CC1CC1)N[C@@H]1CN(Cc2ccc(F)cc2)C[C@@H]2CCCO[C@@H]21	-3.12
CN1CCN(C(=O)Cc2ccsc2)Cc2cccnc21	-1.77
Cn1cc(N2C[C@@H]3CN(Cc4ccoc4)C[C@@H]3C2=O)cn1	-2.46
COCC1CN(Cc2ccc(C)o2)Cc2nnn(C)c21 (stereo not drawn)	-0.755
Cc1occc1C(=O)N1CCC2(CCCN(Cc3nccs3)C2)C1 (stereo not drawn)	1.62
Cn1cccc1CN1CCC2(CC1)CN(c1ncccn1)CCO2	1.85
CN(C)C(=O)CO[C@H]1CN(Cc2ccccc2)[C@@H]2CCCO[C@H]12	34.3
COc1ccc(CN2C[C@H](OCC3CCOCC3)[C@H]3COC[C@H]32)cc1	-9.69
CCc1ccc(CN2C[C@@H]3OCCN(c4ccnc(N(C)C)n4)[C@@H]3C2)o1	5.59
CS(=O)(=O)N1CCOCC2(CN(Cc3ccsc3)CCO2)C1 (stereo not drawn)	0.00349

Compound	cytotoxicity at 70.5 h [%]
O=C(NCc1cc(=O)n2c(n1)CN(CC1CCOC1)CCC2)C1CC1 (stereo not drawn)	-4.46
Cn1nnc2c1C(COCc1ccccn1)CN(C(=O)c1cccs1)C2 (stereo not drawn)	5.64
Cc1cccc(CN2CCc3ncnc(C)c3CC2)n1	-2.78
COCC1CN(Cc2cc(C)on2)Cc2cn(CC3CCCC3)nc21 (stereo not drawn)	-8.99
c1cc(CN2CCc3ncnc(C4CCOC4)c3CC2)ccn1 (stereo not drawn)	-6.5
O=C(NCc1cn2c(n1)CN(Cc1ccncc1)CC2)C1CCC1	8.23
O=C(NCc1cn2c(n1)CN(Cc1cccnc1)CC2)C1CCC1	7.24
c1cc(CN2CCCC3(COCCN(Cc4c[nH]nn4)C3)C2)cs1 (stereo not drawn)	-2.64
O=C(NCc1cn2c(n1)CN(Cc1ccccn1)CC2)C1CCC1	-10
O=C(N[C@@H]1CN(c2ncccn2)C[C@@H]2CCCO[C@@H]21)c1ccncc1	-3.78
Fc1ccc(CN2CCCC3(COCCN(Cc4c[nH]nn4)C3)C2)cc1 (stereo not drawn)	-5.93
CS(=O)(=O)N[C@@H]1CN(Cc2ccncc2)C[C@@H]2CCCO[C@@H]21	-9.37
CN(C)CCN1CCOCC2(CCCN(C(=O)Cc3ccccc3)C2)C1 (stereo not drawn)	10.9
Cn1ccnc1CN1CCN2C[C@H](Oc3ccccc3)C[C@H]2C1	11.2
O=C(NCc1ccncc1)c1nc2c(o1)CN(C(=O)c1cccnc1)C2	-0.144
Cn1ccnc1CN1CCN2C[C@H](OCc3ccccc3)C[C@H]2C1	-1.75
Cn1cc(CN2CCc3c(COCC4CC4)cncc3C2)cn1	-1.91
Fc1ccc(CN2CCC3(CC2)CN(c2ccccn2)CCO3)cc1	2.69
COCCNC(=O)[C@H]1CN(Cc2nccs2)C[C@H]2OCC[C@@H]12	-2.35
COCCNC(=O)[C@H]1CN(Cc2scnc2C)C[C@H]2OCC[C@@H]12	-3.43
CCN(CC)CC1CN(CCc2ccccc2)Cc2nccn2C1 (stereo not drawn)	-4.11
Cc1nnc(N2C[C@@H](OCCCn3cccn3)[C@H]3OCCC[C@H]32)s1	-9.45
Cc1ncnc2c1CCN(Cc1ccccn1)CC2	-4.71
Cc1nnc(N2CCCC3(CN(Cc4ccncc4)CCO3)C2)o1 (stereo not drawn)	-2.14
COCC1CC2(CCN(Cc3cccnc3)CC2)CN1c1ncccn1 (stereo not drawn)	-0.169

Source: ChEMBL document CHEMBL3507680, “University of Dundee, Gates Library screen for HepG2 cell viability”
